{"source": "paper PMC12895000", "about": "“Structural and computational supported development of 2,5-disubstituted-1,3,4-oxadiazole analogues as active LOX, urease, and α-glucosidase inhibitors” (Scientific Reports, 2026)", "target": "α-glucosidase (Saccharomyces cerevisiae, UniProt P53341)", "sequence (P53341 whole entry)": "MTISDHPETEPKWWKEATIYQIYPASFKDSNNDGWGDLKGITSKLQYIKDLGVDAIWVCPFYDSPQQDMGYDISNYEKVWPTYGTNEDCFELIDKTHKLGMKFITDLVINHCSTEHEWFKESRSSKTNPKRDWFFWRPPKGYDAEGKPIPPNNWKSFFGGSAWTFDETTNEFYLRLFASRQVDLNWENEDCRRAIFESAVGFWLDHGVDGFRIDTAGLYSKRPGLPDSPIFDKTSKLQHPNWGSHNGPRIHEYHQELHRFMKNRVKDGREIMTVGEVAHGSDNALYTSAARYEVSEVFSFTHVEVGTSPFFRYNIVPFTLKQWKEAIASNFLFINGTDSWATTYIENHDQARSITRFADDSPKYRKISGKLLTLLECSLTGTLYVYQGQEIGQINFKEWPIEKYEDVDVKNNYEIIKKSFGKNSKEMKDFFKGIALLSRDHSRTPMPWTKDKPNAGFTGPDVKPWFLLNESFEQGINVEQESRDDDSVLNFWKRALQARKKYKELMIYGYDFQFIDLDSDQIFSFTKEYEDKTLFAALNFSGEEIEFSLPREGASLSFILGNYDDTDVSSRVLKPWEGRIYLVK", "format": "biochemical", "protocol": "Inspection of α-glucosidase inhibition was made by using protocol mentioned in literature. 10 µl (0.057 units) of purified enzyme, 10 µl (0.5 mM) of the test compound and 70 µl (50 mM) of sodium phosphate buffer (pH = 6.8) were collected in a 96-well plate. Pre-incubation for 10 min at 37 °C was performed. Pre-reading was done at 400 nm. 10 µl (0.5 mM) of p-nitrophenyl glucopyranoside were added as a substrate. […] The collection of all data was made thrice. The formula given above allowed to calculate % of inhibition."}
{"smiles": "C[C@H]1O[C@H](O[C@H]2[C@H](O)[C@@H](O)[C@@H](O[C@H]3[C@H](O)[C@@H](O)C(O)O[C@@H]3CO)O[C@@H]2CO)[C@H](O)[C@@H](O)[C@@H]1N[C@H]1C=C(CO)[C@@H](O)[C@H](O)[C@H]1O", "note": "(stereo partly shown) [Acarbose]", "values": [{"measurement": "α-Glucosidase Inhibition (%) at 0.5 Mm", "result": "65.73 ± 1.93", "unit": "%"}]}
